From patent US12459951B2, “Compounds that interact with RAS superfamily proteins for treatment of cancers, inflammatory diseases, rasopathies, and fibrotic disease” (SHY Therapeutics, LLC, priority 2022, dated 2025)
Where a name gives a salt, the structure may show the parent alone.

How the values were obtained:
IL6 = assay: IL-6 Quantification Assay (ELISA), LPS-stimulated RAW 264.7; assay type: cell-based; set-up: inhibition: dose or concentration left out as unconfirmed; settings: Mus musculus, RAW264.7; read-out: IL-6: % inh.
TNF-alpha = TNF-alpha Quantification Assay (ELISA), LPS-stimulated RAW 264.7; assay type: cell-based; settings: Mus musculus, RAW264.7; at 10 μM; read-out: TNFα: % inh.
Erk1/2 phosphorylation = assay: Erk1/2 Phosphorylation Assay (western blot), Panc-1; assay type: cell-based, human; settings: at 10 μM, * = activation
Experimental: Protocol for Western Erk1/2 Cell-Based Phosphorylation Assay
This assay is referred to as the “Erk1/2 Phosphorylation Assay” throughout this application.
Cell lines: Human tumor-derived pancreatic cancer cell line Panc-1 (expressing KRas G12D mutant) was purchased from American Type Culture Collection and grown in complete DMEM-High Glucose medium, supplemented with penicillin (100 U/mL), streptomycin (100 μg/mL), and 10% heat-inactivated FBS at 37° C. in a humidified incubator with 5% CO2.
Method 1: Cells were plated at 350000 cells/well density in a 12-well plate, allowed 3 hours to adhere to the plate, then starved in the appropriate medium in the presence of 0.5% FBS overnight. The small molecules to be tested were added to the cells in the final concentration of 10 μM in the presence of 0.3% DMSO for 6 hours incubation at 37° C. For IC50 value determination, serial dilutions of compounds were added to cells under the same conditions. Next, cells were stimulated with 1.5 ng/ml EGF for 15 minutes then cells were lysed with lysis buffer containing 1% Triton X-100, EDTA, and Halt™ Protease & Phosphatase Inhibitor Cocktail (Thermo Scientific). Protein concentration was assessed by BCA protein assay (Thermo Scientific). Phosphorylation level of Erk1/2 was determined by western blot.
Method 2: Cells were plated at 350000 cells/well density in a 12-well plate in 10% FBS. The next day small molecules to be tested were added to the cells in the final concentration of 10 μM in the presence of 0.3% DMSO for 6 hours incubation at 37° C. For IC50 value determination, serial dilutions of compounds were added to cells under the same conditions. Next, cells were lysed with lysis buffer containing 1% Triton X-100, EDTA, and Halt™ Protease & Phosphatase Inhibitor Cocktail (Thermo Scientific). Protein concentration was assessed by BCA protein assay (Thermo Scientific). Phosphorylation level of Erk1/2 was determined by western blot.
Western blot protocol: Equal amounts of protein (15-50 μg) were separated by SDS-PAGE and transferred to nitrocellulose membranes (Invitrogen by Thermo Fisher Scientific). The membrane was stained with Ponceau S Stain (Boston BioProducts) to verify uniform protein loading. Membranes were blocked with 10% milk and phosphorylation levels of Erk1/2 were assessed by incubating overnight at 4° C. with anti-phospho-p44/42 (Thr202/Tyr204) antibody (Cell Signaling) followed by HRP-conjugated secondary antibody (Jackson Immunoresearch, West Grove, PA). Bands were incubated in Amersham ECL Prime Western Blotting Detection Reagent (GE Healthcare) and visualized using the ChemiDoc MP imaging system (Bio-Rad).

KRas wild type = assay: Ras GTP Binding Domain Inhibition Assay (Ras Superfamily Assay); settings: 20 μM compound; for KRas wild type + SOS: % inh.: with SOS; for KRas wild type: % inh.: without SOS
Text: (§1) Biological Example 3: Ras GTP Binding Domain Inhibition Assay
(§2) The assays described in Example 3 are collectively referred to as the “Ras Superfamily Assay” throughout this application.
(§3) A Ras Superfamily Activity Assay (as disclosed in International Application No. PCT/US2018/038613, filed Jun. 20, 2018, which is incorporated by reference in its entirety) was used as a specific assay to evaluate compounds against the following for the following Ras Superfamily proteins: KRas wild type, KRas Q61H mutant, KRas G12C mutant, KRas G12D mutant, Rac-1, and Rho-A.
(§4) • 25 mM Tris-HCl, pH 7.4 • 27 mM KCl • 137 mM NaCl • 1 mM MgCl2 • 1 mM DTT Buffer-II: • 50 mM Tris-HCl, pH 7.0 • 1 mM MgCl2 • 1 mM DTT
(§5) The small GTPases proteins: KRas wild type. KRas Q61H mutant, KRas G12C mutant, KRas G12D mutants, Rac-1, and Rho-A were expressed as His-tagged proteins. In addition, the Guanosine nucleotide Exchange Factor (GEF) Sos protein (residues 556-1049) was expressed as a His-tagged protein. In cells, the guanine nucleotide exchange factor Sos protein promotes activation of Ras proteins by stimulating an exchange of GDP for GTP. The inclusion of Sos to the Ras GTP binding domain inhibition assay may be considered as an alternative representation of physiological cellular conditions for evaluating the inhibitory activity of some of the tested small molecules.
(§6) For the assay, all purified small GTPases proteins were diluted in Buffer-I or Buffer-II to a final concentration of 10-30 μg/mL. 200 μL of each diluted protein was added to a nickel-coated 96-well plate and incubated overnight at 4° C. Then the protein solution was discarded and 200 μL of Buffer-I or Buffer-II was added to each well in the presence of 1% DMSO. Compounds to be tested were added to the protein-coated wells at final concentration of 20 μM, and incubated for 3 hours at room temperature with and without 10-30 μg/mL of Sos added to the final hour of the incubation. When performing IC50 measurements a serial dilution of all tested concentrations was added. Then Cy3-GTP or Cy5-GTP was added to each well to a final concentration of 100 nM. The labeled GTP was incubated for 45 minutes at room temperature. Following GTP incubation, wells were washed 3× in Buffer-I or Buffer-II and 200 μL of Buffer-I or Buffer-II was added to each well. Following washes, the amount of bound labeled-GTP was measured using a SpectraMax M3 (Molecular Devices).

Rac-1 = molecular target: T1, Rac-1 (Homo sapiens, UniProt P63000); assay: as above; settings: read-out: Rac-1: % inh.
T1 construct: made in house
Text: as §1, §2, §3, §4, §5, §6

KRas G12D mutant = assay: as above; settings: 20 μM compound; for KRas G12D mutant + SOS: % inh.: with SOS; for KRas G12D mutant: % inh.: without SOS
Text: as §1, §2, §3, §4, §5, §6

SMILES	inhibition (IL6) [%]	inhibition at 10 µM (TNF-alpha) [%]	% inh of Erk1/2 phosphorylation in Panc-1 (Erk1/2 phosphorylation)	KRas wild type + SOS: % inh. (KRas wild type)	KRas wild type: % inh. (KRas wild type)	inhibition at 20 µM (Rac-1) [%]	KRas G12D mutant + SOS: % inh. (KRas G12D mutant)	KRas G12D mutant: % inh. (KRas G12D mutant)
Cc1c(-c2ccn(C)n2)cn2nc(-c3nccn3C)nc(Nc3cc4n(n3)CCC4)c12 [Compound 100, N-(5,6-Dihydro-4H-pyrrolo[1,2-b]pyrazol-2-yl)-5-methyl-2-(1-methyl-1H-imidazol-2-yl)-6-(1-methyl-1H-pyrazol-3-yl)pyrrolo[2,1-f][1,2,4]triazin-4-amine]	50 to 74	0	C* (46-84% activation)	D (D = 76-100% inhibition)	D (D = 76-100% inhibition)	76 to 100	D (D = 76-100% inhibition)	D (D = 76-100% inhibition)
Cc1c(-c2ccn(C)n2)cn2nc(-c3nccn3C)nc(Nc3cc(OCCO)ncn3)c12 [Compound 101, 2-((6-((5-Methyl-2-(1-methyl-1H-imidazol-2-yl)-6-(1-methyl-1H-pyrazol-3-yl)pyrrolo[2,1-f][1,2,4]triazin-4-yl)amino)pyrimidin-4-yl)oxy) ethan-1-ol]	50 to 74	0	A* (1-25% activation)	B (B = 26-49% inhibition)	D (D = 76-100% inhibition)	76 to 100	C (C = 50-75% inhibition)	D (D = 76-100% inhibition)
COc1ccnc(Nc2nc(-c3nccn3C)nn3cc(-c4ccn(C)n4)c(C)c23)c1 [Compound 102, N-(4-Methoxypyridin-2-yl)-5-methyl-2-(1-methyl-1H-imidazol-2-yl)-6-(1-methyl-1H-pyrazol-3-yl)pyrrolo[2,1-f][1,2,4]triazin-4-amine]	75 to 100	25 to 49	A* (1-25% activation)	D (D = 76-100% inhibition)	D (D = 76-100% inhibition)	76 to 100	D (D = 76-100% inhibition)	D (D = 76-100% inhibition)
CO[C@H]1C[C@H](Nc2nc(-c3nccn3C)nn3cc(-c4ccn(C)n4)c(C)c23)C1 [Compound 103, N-((1r,3r)-3-Methoxycyclobutyl)-5-methyl-2-(1-methyl-1H-imidazol-2-yl)-6-(1-methyl-1H-pyrazol-3-yl)pyrrolo[2,1-f][1,2,4]triazin-4-amine hydrochloride salt]	0	0	A* (1-25% activation)	A (A = 1-25% inhibition)	B (B = 26-49% inhibition)	1 to 25	B (B = 26-49% inhibition)	B (B = 26-49% inhibition)
Cc1c(-c2ccn(C)n2)cn2nc(-c3nccn3C)nc(Nc3cc(C4CC4)[nH]n3)c12 [Compound 104, N-(5-Cyclopropyl-1H-pyrazol-3-yl)-5-methyl-2-(1-methyl-1H-imidazol-2-yl)-6-(1-methyl-1H-pyrazol-3-yl)pyrrolo[2,1-f][1,2,4]triazin-4-amine]	75 to 100	0	D* (85-100% activation)	D (D = 76-100% inhibition)	D (D = 76-100% inhibition)	76 to 100	D (D = 76-100% inhibition)	D (D = 76-100% inhibition)
Cc1c(-c2ccn(C)n2)cn2nc(-c3nccn3C)nc(Nc3nccc(OCCN(C)C)n3)c12 [Compound 105, N-(4-(2-(Dimethylamino)ethoxy)pyrimidin-2-yl)-5-methyl-2-(1-methyl-1H-imidazol-2-yl)-6-(1-methyl-1H-pyrazol-3-yl)pyrrolo[2,1-f][1,2,4]triazin-4-amine]	75 to 100	0	A (1-25% inhibition)	D (D = 76-100% inhibition)	C (C = 50-75% inhibition)	76 to 100	D (D = 76-100% inhibition)	D (D = 76-100% inhibition)
Cc1c(-c2ccn(C)n2)cn2nc(-c3nccn3C)nc(Nc3nccn3C)c12 [Compound 106, 5-Methyl-N,2-bis(1-methyl-1H-imidazol-2-yl)-6-(1-methyl-1H-pyrazol-3-yl)pyrrolo[2,1-f][1,2,4]triazin-4-amine]	50 to 74	0	0 (0% inhibition)	0 (0 = 0% inhibition)	A (A = 1-25% inhibition)	26 to 49	A (A = 1-25% inhibition)	B (B = 26-49% inhibition)
COc1cncnc1Nc1nc(-c2nccn2C)nn2cc(-c3ccn(C)n3)c(C)c12 [Compound 107, N-(5-Methoxypyrimidin-4-yl)-5-methyl-2-(1-methyl-1H-imidazol-2-yl)-6-(1-methyl-1H-pyrazol-3-yl)pyrrolo[2,1-f][1,2,4]triazin-4-amine]	25 to 49	1 to 24	D* (85-100% activation)	D (D = 76-100% inhibition)	C (C = 50-75% inhibition)	76 to 100	C (C = 50-75% inhibition)	C (C = 50-75% inhibition)
CCc1nc(Nc2nc(-c3nccn3C)nn3cc(-c4ccn(C)n4)c(C)c23)nn1C [Compound 108, N-(5-Ethyl-1-methyl-1H-1,2,4-triazol-3-yl)-5-methyl-2-(1-methyl-1H-imidazol-2-yl)-6-(1-methyl-1H-pyrazol-3-yl)pyrrolo[2,1-f][1,2,4]triazin-4-amine]	50 to 74	0	A* (1-25% activation)	C (C = 50-75% inhibition)	D (D = 76-100% inhibition)	76 to 100	C (C = 50-75% inhibition)	D (D = 76-100% inhibition)
